Experimental data reported in patent US11147796B2, “Agent for preventing or ameliorating hearing impairment” (Tohoku University, priority 2017, dated 2021).

First: CCOc1ccc2[nH]cc(CC(=O)O)c2c1 [compound #37, 5-Ethoxy-3-indoleacetic Acid]
Second: CCCOc1ccc2[nH]cc(CC(=O)O)c2c1 [compound #38, 5-(1-Propoxy)-3-indoleacetic Acid]
The melting point of the first is lower: 86 to 92.7 °C for the first, 133.6 to 136.8 °C for the second.

First: CCCCCOc1ccc2cccc(CC(=O)O)c2c1 [compound #34, α-(7-Pentoxy-1-naphthalenyl)-acetic Acid]
Second: CCCCOc1ccc2cccc(CC(=O)O)c2c1 [compound #33, α-(7-Butoxy-1-naphthalenyl)-acetic Acid]
The melting point of the first is higher: 104 to 106 °C for the first, 102 to 104 °C for the second.

First: Cc1ccc2[nH]cc(C(CC(=O)c3ccc(F)cc3F)C(=O)O)c2c1 (centres unmarked) [Compound (3-3), 4-(2,4-difluorophenyl)-2-(5-methyl-1H-indol-3-yl)-4-oxo-butanoic Acid]
Second: O=C(CC(C(=O)O)c1c[nH]c2ccc(F)cc12)c1ccc(F)cc1F (centres unmarked) [Compound (3-1), 4-(2,4-difluorophenyl)-2-(5-fluoro-1H-indol-3-yl)-4-oxo-butanoic Acid]
The melting point of the first is lower: 200 to 202 °C for the first, 207 to 208 °C for the second.

First: O=C(CC(C(=O)O)c1c[nH]c2ccccc12)c1ccccc1 (centres unmarked) [compound #20, 4-Phenyl-2-(1H-indol-3-yl)-4-oxo-butanoic Acid]
Second: O=C(CC(C(=O)O)c1c[nH]c2cc(OCc3ccccc3)ccc12)c1ccc(F)cc1F (centres unmarked) [Compound (4-2), 2-(6-benzyloxy-1H-indol-3-yl)-4-(2,4-difluorophenyl)-4-oxo-butanoic Acid]
The melting point of the first is lower: 149 to 150 °C for the first, 177 to 178 °C for the second.

First: O=C(CC(C(=O)O)c1c[nH]c2c(Cl)cccc12)c1ccc(F)cc1F (centres unmarked) [Compound (5-1), 2-(7-chloro-1H-indol-3-yl)-4-(2,4-difluorophenyl)-4-oxo-butanoic Acid]
Second: COc1cccc2c(C(CC(=O)c3ccc(F)cc3F)C(=O)O)c[nH]c12 (centres unmarked) [Compound (5-2), 4-(2,4-difluorophenyl)-2-(7-methoxy-1H-indol-3-yl)-4-oxo-butanoic Acid]
The melting point of the first is higher: 225 to 227 °C for the first, 181 to 183 °C for the second.

First: CCCCOc1ccc2[nH]cc(CC(=O)O)c2c1 [compound #39, 5-(1-Butoxy)-3-indoleacetic Acid]
Second: COc1ccc2[nH]cc(C(CC(=O)c3ccc(F)cc3F)C(=O)O)c2c1 (centres unmarked) [Compound (3-4), 4-(2,4-difluorophenyl)-2-(5-methoxy-1H-indol-3-yl)-4-oxo-butanoic Acid]
The melting point of the first is lower: 137.8 to 141.1 °C for the first, 205 to 206 °C for the second.

First: O=C(CC(C(=O)O)c1c[nH]c2cc(F)ccc12)c1ccc(F)cc1F (centres unmarked) [Compound (4-1), 4-(2,4-difluorophenyl)-2-(6-fluoro-1H-indol-3-yl)-4-oxo-butanoic Acid]
Second: O=C(CC(C(=O)O)c1c[nH]c2ccc(Cl)cc12)c1ccc(F)cc1F (centres unmarked) [Compound (3-2), 2-(5-chloro-1H-indol-3-yl)-4-(2,4-difluorophenyl)-4-oxo-butanoic Acid]
The melting point of the first is lower: 210 to 214 °C for the first, 236 to 239 °C for the second.

Compared with `O=C(CC(C(=O)O)c1c[nH]c2cccc(Cl)c12)c1ccc(F)cc1F` (centres unmarked) [Compound (2-1), 2-(4-chloro-1H-indol-3-yl)-4-(2,4-difluorophenyl)-4-oxo-butanoic Acid], `Cn1cc(C(CC(=O)c2ccc(F)cc2F)C(=O)O)c2ccccc21` (centres unmarked) [Compound (6-1), 4-(2,4-difluorophenyl)-2-(1-methyl-1H-indol-3-yl)-4-oxo-butanoic Acid] is lower in melting point: 203 to 204 °C for the first, 192 to 193 °C for the second.

With `CCCn1cc(C(CC(=O)c2ccc(C)cc2C)C(=O)O)c2ccccc21` (centres unmarked) [compound 6, 4-(2,4-Dimethylphenyl)-2-(1-propyl-1H-indol-3-yl)-4-oxo-butanoic Acid] the melting point was 139 to 141 °C.
